Measured values: patent publication US20080269184A1, “Niosome Having Metal Porphyrin Complex Embedded Therein, Process For Producing The Same And Drug With The Use Thereof” (priority 2004, published 2008)
Read-outs that look alike come from different tables or passages of the source.

Key:
[1] = value disclosed by Ohse, Kawakami et al., J. Inorg. Biochem., 85, 201 (2001); cited from earlier work
[2] = SOD activity by the cytochrome c method (xanthine/xanthine oxidase); type: biochemical; details: pH 7.8, 25° C., metalloporphyrin concentration
Method: The SOD activity (i.e. O2— extinction activity) of Por-embedding niosome was evaluated according to the cytochrome c method ((1) J. M. Mccord and I. Fridovich, J. Biol. Chem., 244, 6049 (1969) and (2) J. Butler, W. H. Kopenol, E. Margoliash, J. Biol. Chem., 257, 10747 (1982)). A specific procedure was as follows: Five or more Por-embedding niosome solutions (A solutions) with different metalloporphyrin concentrations ranging from 0 to 1,000 μM were prepared. […] The UV-vis was also measured for a solution without addition of Por-embedding niosome (blank) in the same manner.
The ferrocytochrome c formation rates in a solution not containing Por-embedding niosome (vo) and a solution containing Por-embedding niosome (vi) were determined from the relationship between the time and the absorbance at 550 nm in the UV-vis measurement over time. The inhibition coefficient (IC) was calculated according to the following formula to determine the concentration of metalloporphyrin when IC=50% (IC50) from the relationship between the concentration of metalloporphyrin complex and IC. […] The SOD activity of MnT4MPyP and the like was evaluated in the same manner for reference. […]

[3] = SOD activity by the stopped flow method (potassium superoxide); type: biochemical; details: HEPES buffer pH 8.1, 36° C.
Method: The SOD activity (i.e. ° 2-extinction activity) of Por-embedding niosome was evaluated according to the stopped flow method of Riley et al. (D. P. Riley, W. L. Rivers, and R. H. Weiss, Anal. Biochem., 196, 344 (1991)). A specific procedure was as follows: 60 mM HEPES/HEPES Na buffer solutions (8.1 pH) containing Por-embedding niosome at different concentrations were rapidly mixed with a dimethyl sulfoxide solution of potassium superoxide, which is an O2^−. generation source, at 36° C. to measure over time an attenuation of absorbance at 245 nm due to O2^−. (a decay curve of O2^−. extinction reaction). The relationship of ln (absorbance) and time was determined from the decay curve. The apparent rate constant was calculated from the inclination of the resulting relationship. The rate constant (kcat) of the O2^−. extinction reaction was then determined from the inclination of the relationship of the metalloporphyrin complex concentration and the apparent rate constant.

[4] = value disclosed by Fridovich et al., J. Biol. Chem., 273, 24251 (1998); read-out: IC50 (SOD activity); cited from earlier work

IC50 [2] [nM]	Compound	kcat (rate constant of the O2−. extinction reaction) [1] [M⁻¹ s⁻¹]	kcat (rate constant of the O2−. extinction reaction) [3] [M⁻¹ s⁻¹]	IC50 [4] [nM]
430	C[n+]1ccc(-c2c3nc(c(-c4cc[n+](C)cc4)c4ccc([n-]4)c(-c4cc[n+](C)cc4)c4nc(c(-c5cc[n+](C)cc5)c5ccc2[n-]5)C=C4)C=C3)cc1.[Mn+2] [MnT4MPyP, Manganese[5,10,15,20-tetrakis(4-methylpyridyl)porphyrin]]	2.2e+07	1.4e+07	700
180	manganese[5,10,15,20-tetrakis(2-methylpyridyl)porphyrin] [MnT2MPyP]	–	2.1e+07	–
